Source: US20160015064A1, “COMPOUNDS, COMPOSITIONS, AND METHODS FOR MODULATING SWEET TASTE” (CHROMOCELL CORPORATION, priority 2013, published 2016)

Tests used:
[1] = tested on: perception of the sweet taste of an aqueous solution of sweetener; assay: Ranking sip and spit test of sweetness perception (R index); type: in vivo, humans; settings: vs negative control
Method: The effect of the test compounds on the perception of the sweet taste of an aqueous solution of sweetener in humans was evaluated using a ranking “sip and spit” method.
The aqueous sweetener solutions were prepared by adding, fructose, sucrose or glucose (by weight), to water to achieve the desired concentration.
Compounds were first prepared as a 500-fold concentrated stock solution in 100% ethanol. These concentrated stocks were then added to the aqueous sweetener solutions to result in a final ethanol concentration of 0.2%. The control (positive and negative) samples were also normalized to 0.2% ethanol.
In the ranking test used for compound evaluation, taste panelists (n=15), rank samples in increasing order of sweetness. One set, comprising of 6 samples, was presented to each panelists at a given time and are asked to rank them in order of increasing sweetness.
Panelists were instructed not to eat or drink (except water) for at least 1 h before the test. During the test, panelists were instructed to sip each sample, swirl it around their mouth and then expectorate. After tasting each set, panelists were instructed to rank the 6 samples within the set from least sweet to most sweet. Where rank 1—is lowest in sweetness and rank 6—is highest in sweetness. Panelists cleansed their palates by rinsing with water, eating a cracker and waiting for an interval of 10 minutes. All samples were tasted at ambient temperatures. Each sample was tasted twice.
R index analysis was utilized to determine the degree of difference between a test and control sample. It indicates the level of discrimination between two samples. […] A positive control sample was used to assess the ability of the panelists to accurately discriminate sweetness perception differences from the negative control.

[2] = tested on: perception of sweet taste, in an aqueous solution; assay: Inherent sweetness assessment, difference from control sip and spit method; type: in vivo, humans; settings: no sweetener
Method: The aqueous sucrose solutions were prepared by adding, sucrose (by weight), to water to achieve the desired concentration.
Compounds were first prepared as a 500-fold concentrated stock solution in 100% ethanol. These concentrated stocks were then added to water to result in a final ethanol concentration of 0.2%. The control (including positive control) samples were also normalized to 0.2% ethanol. This level of ethanol was not seen to contribute any perceived sweetness.
The intrinsic effect of test compounds on the perception of sweet taste, in an aqueous solution, in humans was evaluated using a difference from control “sip and spit” method employing a verbal category scale.
In this method, panelists (n=12) evaluate one pair of samples at a time—one sample contains water plus compound (i.e. test) while the other contains water without compound (i.e. control). Panelists were instructed to first taste the un-blinded control followed by the test sample and asked to rate the size of sweetness difference between the test and control sample, using a 6 point verbal category scale:
Verbal category scale • No difference • Slight difference • Slight/moderate difference • Moderate difference • Moderate/large difference • Very large difference
4 blinded controls comprising of one negative control (0% sucrose) and 3 positive control samples (0.5% sucrose, 1% sucrose and 2% sucrose) were also included as part of the test to evaluate the ability of panelists to rank the difference in sweetness perception between 0.5% sucrose, 1% sucrose and 2% sucrose compared to 0% sucrose control.
Panelists were instructed not to eat or drink (except water) for at least 1 h before the test. During the test, panelists were instructed to sip each sample, swirl it around their mouth and then expectorate. Panelists cleansed their palates by rinsing with water, eating a cracker and waiting for an interval of about 5 minutes. All samples were tasted at ambient temperatures.
The verbal category response for each test sample was converted into an integer numerical value, from 1 to 6 (e.g. no difference=1 and very large difference=6). Total numbers of panelist responses per integer value were plotted as a histogram. An assessment was then made, comparing mean, mode of the numerical value, and the distribution of the histogram plots, for test samples as compared to that of the positive (0.5% sucrose, 1% sucrose and 2% sucrose) and negative control (0% sucrose) sample. Inherent sweetness levels are then correlated to the positive controls as discrete bins: • Bin 1: 0% sucrose • Bin 2: >0% sucrose—<0.5% sucrose • Bin 3: 0.5% sucrose • Bin 4: >0.5% sucrose—<1% sucrose • Bin 5: 1% sucrose • Bin 6: >1% sucrose—<2% sucrose • Bin 7: 2% sucrose

| Compound | R Index Score ([1]; 4% fructose test sample, compound 10 ppm) | R Index Score ([1]; 5% sucrose test sample, compound 10 ppm, significant at R index ≧60) | Correlated Inherent Sweetness Assessment ([2]; compound 10 ppm in water) | Correlated Inherent Sweetness Assessment ([2]; compound 15 ppm in water) | R Index Score ([1]; 5% sucrose test sample, compound 2.5 ppm) |
| --- | --- | --- | --- | --- | --- |
| COc1ccc(C2CC(=O)c3c(O)cccc3O2)cc1O (single isomer, unassigned) [Compound 2, 5-hydroxy-2-(3-hydroxy-4-methoxyphenyl)chroman-4-one] | 81 | 90 | 0.5%-1% sucrose | 1% sucrose |  |
| COc1ccc(C2CC(=O)c3c(O)cccc3O2)cc1O (single isomer, unassigned) [Compound 3, 5-hydroxy-2-(3-hydroxy-4-methoxyphenyl)chroman-4-one] |  |  | 0.5%-1% sucrose | 1% sucrose | 78 |
